Assays:
[1] = test system: MCF7; test: cells; type: functional, cell-based; details: Homo sapiens
Description: Cytotoxicity against human MCF7 cells incubated for 2 to 4 hrs by MTT assay

[2] = test system: A549; test: Cytotoxicity against human A549 cells incubated for 2 to 4 hrs by MTT assay; type: functional, cell-based
[3] = test system: MCF7; test: Induction of cell cycle arrest in human MCF7 cells assessed as accumulation of cells at Pre-G1 phase at 1.74 uM after 24 hrs by propidium iodide staining-based flow cytometric analysis (reference value: 1.63%); type: functional
[4] = test system: MCF7; test: Induction of apoptosis in human MCF7 cells assessed as late apoptotic cells measured after 24 hrs by Annexin V-FITC/propidium iodide staining based flow cytometry assay (reference value: 0.12%); type: functional
[5] = cells; type: ADME, cell-based; details: Homo sapiens, PCS-800-011
Description: Cytotoxicity against human PCS-800-011 cells

[6] = biological target: Epidermal growth factor receptor (Homo sapiens, UniProt P00533)
Description: Inhibition of EGFR (unknown origin)

[7] = test system: MCF7; test: Induction of cell cycle arrest in human MCF7 cells assessed as accumulation of cells at G0/G1 phase at 1.74 uM after 24 hrs by propidium iodide staining-based flow cytometric analysis (reference value: 52.94%); type: functional
[8] = test system: MCF7; test: Induction of apoptosis in human MCF7 cells assessed as total apoptotic cells measured after 24 hrs by Annexin V-FITC/propidium iodide staining based flow cytometry assay (reference value: 1.63%); type: functional
[9] = test system: MCF7; test: Induction of cell cycle arrest in human MCF7 cells assessed as accumulation of cells at G2/M phase at 1.74 uM after 24 hrs by propidium iodide staining-based flow cytometric analysis (reference value: 10.49%); type: functional
[10] = test system: MCF7; test: Induction of apoptosis in human MCF7 cells assessed as early apoptotic cells measured after 24 hrs by Annexin V-FITC/propidium iodide staining based flow cytometry assay (reference value: 0.32%); type: functional
[11] = test system: MCF7; test: Induction of apoptosis in human MCF7 cells assessed as necrotic cells measured after 24 hrs by Annexin V-FITC/propidium iodide staining based flow cytometry assay (reference value: 1.19%); type: functional
[12] = test system: MCF7; test: Induction of cell cycle arrest in human MCF7 cells assessed as accumulation of cells at S phase at 1.74 uM after 24 hrs by propidium iodide staining-based flow cytometric analysis (reference value: 36.57%); type: functional
[13] = test system: MCF7; test: Induction of cell cycle arrest in human MCF7 cells assessed as accumulation of cells at S phase at 4.05 uM after 24 hrs by propidium iodide staining-based flow cytometric analysis (reference value: 36.57%); type: functional
[14] = test system: MCF7; test: Induction of cell cycle arrest in human MCF7 cells assessed as accumulation of cells at G2/M phase at 4.05 uM after 24 hrs by propidium iodide staining-based flow cytometric analysis (reference value: 10.49%); type: functional
[15] = test system: MCF7; test: Induction of cell cycle arrest in human MCF7 cells assessed as accumulation of cells at Pre-G1 phase at 4.05 uM after 24 hrs by propidium iodide staining-based flow cytometric analysis (reference value: 1.63%); type: functional
[16] = test system: MCF7; test: Induction of cell cycle arrest in human MCF7 cells assessed as accumulation of cells at G0/G1 phase at 4.05 uM after 24 hrs by propidium iodide staining-based flow cytometric analysis (reference value: 52.94%); type: functional

Chain of Epidermal growth factor receptor (P00533 whole entry): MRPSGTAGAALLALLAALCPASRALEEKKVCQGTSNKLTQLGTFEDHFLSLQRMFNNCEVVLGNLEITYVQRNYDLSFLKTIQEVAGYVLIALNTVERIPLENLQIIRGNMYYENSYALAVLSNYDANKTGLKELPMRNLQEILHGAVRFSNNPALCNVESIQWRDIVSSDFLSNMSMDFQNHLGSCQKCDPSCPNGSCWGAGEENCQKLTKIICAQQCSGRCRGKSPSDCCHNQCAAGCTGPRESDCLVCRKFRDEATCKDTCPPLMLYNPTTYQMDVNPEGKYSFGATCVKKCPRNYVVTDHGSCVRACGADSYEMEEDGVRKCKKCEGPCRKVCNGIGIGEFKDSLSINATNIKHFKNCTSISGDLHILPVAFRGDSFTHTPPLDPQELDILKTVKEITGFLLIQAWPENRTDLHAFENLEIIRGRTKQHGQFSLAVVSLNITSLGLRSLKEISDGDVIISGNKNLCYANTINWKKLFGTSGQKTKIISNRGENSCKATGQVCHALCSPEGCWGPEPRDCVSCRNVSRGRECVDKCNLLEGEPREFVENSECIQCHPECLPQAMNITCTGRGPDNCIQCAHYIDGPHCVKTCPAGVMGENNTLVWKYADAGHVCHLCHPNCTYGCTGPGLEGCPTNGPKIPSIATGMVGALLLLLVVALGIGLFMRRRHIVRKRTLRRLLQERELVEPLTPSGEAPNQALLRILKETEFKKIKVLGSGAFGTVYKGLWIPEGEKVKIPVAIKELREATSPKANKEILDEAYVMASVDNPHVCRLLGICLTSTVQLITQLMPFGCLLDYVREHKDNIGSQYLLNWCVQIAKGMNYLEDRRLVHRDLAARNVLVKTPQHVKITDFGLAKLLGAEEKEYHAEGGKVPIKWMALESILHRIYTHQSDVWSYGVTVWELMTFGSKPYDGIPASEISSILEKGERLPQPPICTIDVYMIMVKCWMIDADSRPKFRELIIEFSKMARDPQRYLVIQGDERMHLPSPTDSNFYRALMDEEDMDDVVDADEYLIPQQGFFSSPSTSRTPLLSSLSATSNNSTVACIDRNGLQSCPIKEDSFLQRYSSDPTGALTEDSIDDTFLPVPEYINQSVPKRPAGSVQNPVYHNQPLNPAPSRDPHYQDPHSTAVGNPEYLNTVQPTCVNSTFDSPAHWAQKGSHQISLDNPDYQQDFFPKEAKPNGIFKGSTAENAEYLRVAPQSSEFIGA

Compound | IC50 [1] [µM] | IC50 [2] [µM] | IC50 [5] [µM] | IC50 [6] [µM] | other results
O=C(CNc1ccc(Cl)cc1Cl)Nn1c(-c2ccccc2)nc2ccccc2c1=O | 4.41 | 187 |  |  | 
O=C(CNc1ccc(Cl)cc1)Nn1c(-c2ccccc2)nc2ccccc2c1=O | 1.74 | 7.29 | 51.2 | 0.0811 | Activity [3]: 37.24%; Activity [4]: 23.65%; Activity [7]: 34.32%; Activity [8]: 37.24%; Activity [9]: 36.21%; Activity [10]: 2.56%; Activity [11]: 11.03%; Activity [12]: 29.47%
COc1ccc(/C=C2/SC(Nn3c(-c4ccccc4)nc4ccccc4c3=O)=NC2=O)cc1 | 3.76 | 5.31 | 31.4 | 0.136 | 
COc1ccc(/C=C2/SC(Nn3c(-c4ccccc4)nc4ccccc4c3=O)=NC2=O)cc1OC | 1 | 44.7 |  |  | 
COc1ccc(-c2coc3cc(OCC(=O)N/C=C\c4ccc(O)cc4)ccc3c2=O)cc1 |  |  |  | 0.0331 | 
CN(C(=O)NCCCl)c1ccc2ncnc(Nc3cccc(Cl)c3)c2c1 |  |  |  | 0.081 | 
CN(/N=N\c1ccc2ncnc(Nc3cccc(Cl)c3)c2c1)C(=O)OCCl |  |  |  | 0.00039 | 
CCc1ccc(NCC(=O)Nn2c(-c3ccccc3)nc3ccccc3c2=O)cc1 | 2.42 | 2.1 | 36.9 | 0.143 | 
O=C(CNc1ccccc1)Nn1c(-c2ccccc2)nc2ccccc2c1=O | 15.2 | 13.3 |  |  | 
O=C1N=C(Nn2c(-c3ccccc3)nc3ccccc3c2=O)S/C1=C/c1ccccc1 | 4.05 | 0.72 | 44.3 | 0.0656 | Activity [13]: 27.88%; Activity [14]: 29.17%; Activity [4]: 12.16%; Activity [8]: 26.38%; Activity [10]: 4.95%; Activity [15]: 26.38%; Activity [16]: 42.95%; Activity [11]: 9.27%
O=C(CNc1ccc(Br)cc1)Nn1c(-c2ccccc2)nc2ccccc2c1=O | 15.1 | 25 |  |  | 
O=C1N=C(Nn2c(-c3ccccc3)nc3ccccc3c2=O)S/C1=C/c1ccc(Br)cc1 | 2.3 | 21.3 |  |  | 
O=C1N=C(Nn2c(-c3ccccc3)nc3ccccc3c2=O)S/C1=C/c1ccc(O)cc1O | 7.49 | 3.22 | 17.3 | 0.178 | 
